Source: ChEMBL document CHEMBL3784947, “Pharmacophore elucidation of phosphoiodyn A - Potent and selective peroxisome proliferator-activated receptor β/δ agonists with neuroprotective activity” (Bioorg Med Chem Lett, 2016)
Activity calls are given as the source filed them. The calls are words filed in the database; no cut-off is given here.

Key:
[1] = target: T1, Peroxisome proliferator-activated receptor delta (Homo sapiens, UniProt Q03181); test: Agonist activity at human PPAR delta by cell based cotransfection assay
T1 sequence (Q03181 whole entry): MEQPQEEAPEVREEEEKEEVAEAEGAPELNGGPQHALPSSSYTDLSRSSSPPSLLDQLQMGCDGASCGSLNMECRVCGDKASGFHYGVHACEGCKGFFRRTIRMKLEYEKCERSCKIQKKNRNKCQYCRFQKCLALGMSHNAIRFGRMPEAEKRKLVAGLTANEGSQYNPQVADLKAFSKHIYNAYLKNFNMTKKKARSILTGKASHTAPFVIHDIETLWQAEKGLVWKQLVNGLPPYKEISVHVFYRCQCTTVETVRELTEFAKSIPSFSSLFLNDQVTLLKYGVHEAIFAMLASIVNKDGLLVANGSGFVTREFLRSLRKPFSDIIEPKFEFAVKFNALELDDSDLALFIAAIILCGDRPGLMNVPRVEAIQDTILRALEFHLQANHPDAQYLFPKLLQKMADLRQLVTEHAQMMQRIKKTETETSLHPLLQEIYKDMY

[2] = target: T1, Peroxisome proliferator-activated receptor delta; test: Agonist activity at PPAR delta (unknown origin) transfected in HEK293 cells after 24 hrs by dual-luciferase reporter gene assay; format: cell-based
Homo sapiens = species on record: Homo sapiens; test: Ratio of EC50 for human PPAR alpha to EC50 for human PPAR delta
[3] = target: PPAR delta/gamma (Homo sapiens) (UniProt P37231+Q03181); test: Ratio of EC50 for human PPAR gamma to EC50 for human PPAR delta
[4] = target: T2, Peroxisome proliferator-activated receptor gamma (Homo sapiens) (UniProt P37231); test: Agonist activity at PPAR gamma (unknown origin) transfected in HEK293 cells at 0.1 to 100 uM after 24 hrs by DR-1 luciferase reporter gene assay; format: cell-based
T2 sequence (whole entry): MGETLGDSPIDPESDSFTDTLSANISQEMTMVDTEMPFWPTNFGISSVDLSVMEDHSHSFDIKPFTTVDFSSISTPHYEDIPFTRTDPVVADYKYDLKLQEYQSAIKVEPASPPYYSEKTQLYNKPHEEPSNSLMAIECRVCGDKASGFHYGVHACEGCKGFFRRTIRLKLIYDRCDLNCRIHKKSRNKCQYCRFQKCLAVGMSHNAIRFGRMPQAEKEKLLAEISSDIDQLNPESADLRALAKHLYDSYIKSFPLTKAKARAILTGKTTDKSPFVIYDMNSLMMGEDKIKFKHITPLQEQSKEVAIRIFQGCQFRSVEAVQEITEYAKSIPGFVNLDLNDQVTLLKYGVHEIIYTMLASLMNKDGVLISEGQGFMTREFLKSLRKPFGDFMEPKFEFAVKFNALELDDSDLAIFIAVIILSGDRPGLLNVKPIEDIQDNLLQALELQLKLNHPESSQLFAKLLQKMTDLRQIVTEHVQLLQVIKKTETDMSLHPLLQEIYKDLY

[5] = target: T3, Peroxisome proliferator-activated receptor delta (Homo sapiens) (UniProt Q03181); test: Agonist activity at PPAR delta (unknown origin) transfected in HEK293 cells at 0.001 to 1000 uM after 24 hrs by DR-4 luciferase reporter gene assay; format: cell-based
T3 sequence (whole entry): T1 sequence (Q03181 whole entry)

[6] = target: T4, Peroxisome proliferator-activated receptor alpha (Homo sapiens) (UniProt Q07869); test: Agonist activity at PPAR alpha (unknown origin) transfected in HEK293 cells at 1 uM after 24 hrs by dual-luciferase reporter gene assay; format: cell-based
T4 sequence (whole entry): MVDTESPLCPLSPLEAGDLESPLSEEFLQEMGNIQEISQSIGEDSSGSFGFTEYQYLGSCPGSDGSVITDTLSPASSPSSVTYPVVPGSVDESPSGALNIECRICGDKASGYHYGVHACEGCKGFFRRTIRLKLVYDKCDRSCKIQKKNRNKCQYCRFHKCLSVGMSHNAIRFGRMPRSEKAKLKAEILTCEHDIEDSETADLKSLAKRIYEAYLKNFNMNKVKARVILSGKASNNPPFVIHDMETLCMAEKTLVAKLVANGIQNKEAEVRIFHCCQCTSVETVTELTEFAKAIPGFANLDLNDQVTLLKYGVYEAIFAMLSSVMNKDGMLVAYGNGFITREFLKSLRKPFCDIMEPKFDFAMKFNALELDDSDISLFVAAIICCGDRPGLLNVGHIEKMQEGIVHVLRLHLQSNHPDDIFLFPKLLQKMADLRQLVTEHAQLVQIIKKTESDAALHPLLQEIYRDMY

PC-12 [7] = test: Neuroprotective activity against etoposide-induced apoptosis in rat PC12 cells assessed as cell viability at 1 uM preincubated for 4 hrs followed by etoposide addition measured after 48 hrs by prestoblue staining based fluorescence assay; format: functional
PC-12 [8] = test: Neuroprotective activity against etoposide-induced apoptosis in rat PC12 cells assessed as cell viability at 3 uM preincubated for 4 hrs followed by etoposide addition measured after 48 hrs by prestoblue staining based fluorescence assay (reference value: 52 %); format: functional; details: read-out: Activity
PC-12 [9] = test: Neuroprotective activity against serum starvation-induced apoptosis in rat PC12 cells assessed as cell survival at 1 to 30 uM after 24 hrs by prestoblue staining based fluorescence assay (reference value: 55%); format: functional
[10] = target: T3, Peroxisome proliferator-activated receptor delta (Homo sapiens); test: Agonist activity at PPAR delta (unknown origin) transfected in HEK293 cells at 0.001 to 1000 uM after 24 hrs by pGL3-Luciferase reporter gene assay; format: cell-based
[11] = target: T3, Peroxisome proliferator-activated receptor delta (Homo sapiens); test: Agonist activity at PPAR delta (unknown origin) transfected in HEK293 cells at 1 uM after 24 hrs by dual-luciferase reporter gene assay; format: cell-based
[12] = target: T2, Peroxisome proliferator-activated receptor gamma (Homo sapiens); test: Agonist activity at PPAR gamma (unknown origin) transfected in HEK293 cells at 1 uM after 24 hrs by dual-luciferase reporter gene assay; format: cell-based
[13] = target: T1, Peroxisome proliferator-activated receptor delta; test: Agonist activity at PPAR delta (unknown origin)

| Compound | EC50 [2] | Activity [4] | Activity [6] | viability at 3 µM (PC-12 [8]) | Survival (PC-12 [9]) | Activity [11] | Activity [12] | further results |
| --- | --- | --- | --- | --- | --- | --- | --- | --- |
| O=P(O)(OCO)OCCC#CC#CCCCCCC/C=C/I | > 10000 nM | – | – | – | – | – | – | EC50 [1]: > 10 nM |
| O=P(O)(CCO)OCCC#CC#CCCCCCC/C=C/I | 24 nM | – | – | – | – | – | – | Ratio EC50 (Homo sapiens): > 200; EC50 [1]: 23.7 nM; Ratio EC50 [3]: > 200 |
| CCOP(=O)(CCO)OCC | 112 nM | inactive | inactive | 116% | 78% | Active | inactive | Activity [5]: inactive; Activity (PC-12 [7]): Active; Activity [10]: inactive |
| CCOC(=O)Nc1ccc(NCc2ccc(F)cc2)nc1N [FLUPIRTINE] | – | – | – | 80% | 82% | – | – | – |
| C[C@@H]1CN(c2ccc(OC(F)(F)F)cc2)C[C@H](C)N1S(=O)(=O)c1cccc2c1C[C@@H](C(=O)O)C2 | – | – | – | – | – | – | – | EC50 [13]: 1.5 nM |
| O=P(O)(O)CCO | > 100000 nM | inactive | inactive | – | – | – | inactive | – |
| CN(CCOc1ccc(CC2SC(=O)NC2=O)cc1)c1ccccn1 (stereo not given) | – | – | – | – | – | – | Active | – |
| CCOP(=O)(O)CCO | 78 nM | inactive | inactive | 110% | 77% | Active | inactive | Activity [5]: inactive; Activity (PC-12 [7]): Active; Activity [10]: inactive |
| CCOC(=O)CCO | > 1000 nM | Active | Active | – | – | Active | Active | – |
| Cc1cccc(Nc2cc(Cl)nc(SCC(=O)O)n2)c1C | – | – | Active | – | – | – | – | – |
